Laboratory results published in patent EP2605769B1, “BENZOQUINONE DERIVATIVES FOR THE TREATMENT OF MITCHONDRIAL EYE DISEASES” (Santhera Pharmaceuticals (Schweiz) AG, priority 2010, dated 2012).

Assays:
C57BL/6J mice = test: Mouse model of intravitreal rotenone injection, histopathology, second study with modified less invasive injection method; type: in vivo
Description: This mouse model is used to assess the therapeutic potential of compounds in eye disorders characterized by mitochondrial dysfunction such as LHON, DOA, macular degeneration, retinopathy, and complex I deficiency. It is a widely accepted in vivo model based on single-eye intravitreal injection of the mitochondrial complex I inhibitor rotenone in the adult mouse. Intravitreal injection of rotenone induces neurotoxicity through mitochondrial complex I dysfunction in the retina which is the main molecular dysfunction […]. […] Histological analysis includes quantitative measurement of the retinal thickness (whole retina and individual layers), RGC apoptosis and cell death, oxidative stress, glutamine synthetase expression, and gliosis. The non-injected eye is used as a within subject, i.e. intraindividual, control. Male wild-type C57BL/6J mice (7 weeks old, about 25 g body weight) are individually housed in Makrolon type II cages with standard bedding and free access to food and water under a regular 12-hours light-dark cycle (8 a.m. to 8 p.m.). […] The injection is performed over a period of 2 min and the needle is kept in place for an additional 3 min, after which it is gently removed. Sterile surgical glue (Histoacryl, BRAUN/Aesculap AG, Germany) is used to seal the site of injection and a sterile antimicrobial ophtalmic ointment (Neosporin, GlaxoSmithKline, UK) is applied to the injected eye to avoid any infection. […] The eye balls are removed, retinas are dissected, fixed for an additional 2 h at 4°C, incubated in PB 0.1 M and 30% sucrose overnight, frozen in optimal cutting temperature compound (O.C.T., Tissue-Tek, Miles Laboratories, Elkhart, IN, USA), sliced at 14 μm, and collected onto glass slides for immunostaining. Immunostaining is performed accordingly to conventional method using multiple primary antibodies. Fluorescent-conjugated secondary antibodies and DAPI are used for visualization under a fluorescence microscope. All procedures are performed in accordance with the Swiss regulation and under a license approved by the "Kantonales Veterinäramt Basel-Land". […] A modified, less invasive injection method was used to further minimize damage caused by the injection itself. […] At 400 mg/kg Compound IA, a clear significant protection was observed (269 μm; p = 0.03), whereas at 2000 mg/kg a strong protective trend was detected (258 μm; p = 0.06). […] Table 6 In Table 6, the histological data on 7 days post-injection is expressed as % of sham (DMSO) injected control ± SEM. […] The term IA 200 defines a treatment with Compound IA at a concentration of 200 mg/kg; […], IA 400 and IA 2000: define a treatment with Compound IA at 400 mg/kg and at 2000 mg/kg, respectively. Statistical significance relative to vehicle + rotenone group is expressed as p ≤ 0.05 (*). n designates the number of retinas per group.

[1] = Cytotoxicity assay (WST-1); type: cell-based, human; conditions: human, hepg2 cells, Hep-G2 cells, 24 hours exposure, read-out: TC50
Description: This assay investigates cytotoxicity which is defined as the cell-killing property of a chemical compound, independent from the mechanisms of cell death. The HepG2 hepatoblastoma cell line is one of the most common human cell lines for hepatotoxicity studies. […] This assay measures metabolic activity of living cells using the WST-1 cell proliferation reagent (Roche Diagnostics). The tetrazolium salt WST-1 is cleaved to water soluble formazan by cellular enzymes. An expansion in the number of viable cells results in an increase in the overall activity of mitochondrial dehydrogenases in the sample. This augmentation in enzyme activity leads to an increase in the amount of formazan dye formed, which directly correlates to the number of metabolically active cells in the culture. The formazan dye produced by metabolically active cells is directly quantified in a scanning multiwell spectrophotometer by measuring the absorbance of the formazan dye solution between 420 and 480 nm. Healthy HepG2 cells, when maintained in culture, continuously divide and multiply over time. A toxic chemical, regardless of site and mechanism of action, will interfere with this process and result in the reduction of the growth rate reflected in the cell number.
Experimental Procedure: Hep-G2 cells are seeded into a 96-well microplate and maintained in culture for 24 hours. They are then exposed to the test compound over a range of eight concentrations. After 24 hours exposure, the cells are incubated in presence of reagent WST-1 for 30 min before measuring the absorbance of the formazan dye formed. Cytotoxicity is expressed as a concentration dependent reduction of the conversion formazan dye formation due to a decrease in cell proliferation as compared to untreated cells. The TC50 (Toxic Concentration 50%), is defined as the concentration of tested compound required to reduce the cellular viability by 50% relative to the control culture. The lower the TC50 value, the higher is the cytotoxic potential of the test compound. […]

[2] = 200 mg/kg + rotenone, 7 days post-injection, ± SEM
[3] = 400 mg/kg + rotenone, 7 days post-injection, ± SEM
[4] = 2000 mg/kg + rotenone, 7 days post-injection, ± SEM

SMILES	Gliosis (C57BL/6J mice; [2])	RGC number (C57BL/6J mice; [2])	Retinal thickness (C57BL/6J mice; [2])	Retinal thickness (C57BL/6J mice; 200 mg/kg, 7 days after rotenone-injection, sham about 300 µm, rotenone 220 µm)	Gliosis (C57BL/6J mice; [3])	RGC number (C57BL/6J mice; [3])	Retinal thickness (C57BL/6J mice; [3])	Retinal thickness (C57BL/6J mice; 400 mg/kg, 7 days after rotenone-injection, sham about 300 µm, rotenone 220 µm)	Gliosis (C57BL/6J mice; [4])	RGC number (C57BL/6J mice; [4])	Retinal thickness (C57BL/6J mice; [4])	Retinal thickness (C57BL/6J mice; 2000 mg/kg, 7 days after rotenone-injection, sham about 300 µm, rotenone 220 µm)	CC50 at 24 h [1]
COC1=C(OC)C(=O)C(CCCCCCCCCCO)=C(C)C1=O [Compound IA, Idebenone]	124.46 ± 7.37 * (n=7) % of sham (DMSO) injected control	62.53 ± 9.13 (n=7) % of sham (DMSO) injected control	91.17 ± 5.72 (n=8) % of sham (DMSO) injected control	272 µm	125.04 ±9.12 * (n=6) % of sham (DMSO) injected control	63.68 ± 5.98 * (n=6) % of sham (DMSO) injected control	89.93 ± 2.16 * (n=6) % of sham (DMSO) injected control	269 µm	129.86 ± 7.32 * (n=7) % of sham (DMSO) injected control	64.44 ± 4.56 * (n=8) % of sham (DMSO) injected control	86.58 ± 2.51 (n=8) % of sham (DMSO) injected control	258 µm	–
COC1=C(OC)C(=O)C(CCCCCCCCCC(C)(C)O)=C(C)C1=O [Compound IC]	–	–	–	–	–	–	–	–	–	–	–	–	71.9 µM
